Test systems include A498; OVCAR-8; COLO 205; UACC-62; SK-OV-3; SF-295; HL-60; SF-268; MCF7; ACHN; HCT-15; Hs-578T; SK-MEL-28; CAKI-1; RXF 393; IGROV-1; DU-145; SK-MEL-2; T47D; OVCAR-4.
Test in all cases: inhibition of tumour cell growth, NCI panel, 48 h

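Method: 48-hour compound exposure of cells in 96-well plates, five concentrations, linear interpolation of endpoints. At the GI50, growth is halved.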 Calls of active or inactive are those of the source. Cut-off read from the data, not from the text of the source: active = GI50 up to about 1.1 µM and inactive = higher.

For the compound `CC(=O)c1ccc2c(c1)oc(=O)n2CCN1CCCCC1`, the GI50 in the assay on A498, with OVCAR-8, in the assay on COLO 205, with UACC-62, in the assay with SK-OV-3 and with SF-295 was > 100 µM (inactive) throughout. Besides, the GI50 is > 100 µM (inactive) with HL-60; > 100 µM (inactive) with SF-268; > 100 µM (inactive) in the assay on MCF7; > 100 µM (inactive) in the assay with ACHN; > 100 µM with HCT-15; 93.5 µM (inactive) in the assay with Hs-578T. Also, the GI50 in the assay with SK-MEL-28, in the assay with CAKI-1, in the assay with RXF 393, in the assay with IGROV-1, in the assay on DU-145 and in the assay on SK-MEL-2 was > 100 µM (inactive) each time.

`COc1ccc(C2C3=CONC3CC3CCCCC32)cc1` (stereo not drawn): the GI50 in the assay with OVCAR-8 is 85.7 µM (inactive); with UACC-62, 70.1 µM (inactive); in the assay with HL-60, 29.6 µM (inactive); in the assay on T47D it was 35.6 µM (inactive); in the assay on SF-268, 79.4 µM (inactive); with MCF7 it was 12.8 µM (inactive). The GI50 with ACHN was 51.5 µM (inactive); in the assay with SK-MEL-28, 68.4 µM (inactive); with CAKI-1, > 100 µM (inactive); in the assay on IGROV-1, > 100 µM (inactive); in the assay on OVCAR-4 it was 50.4 µM (inactive); in the assay on SK-MEL-2 it was 33.8 µM (inactive).

Consider `CCN1CN(c2ccccc2)C2(CCN(CCCSc3ccc(F)cc3)CC2)C1=O`, for which the GI50 in the assay on OVCAR-8 was 14.8 µM (inactive); in the assay on COLO 205, 2.41 µM (inactive); in the assay with UACC-62 it was 15.1 µM (inactive); in the assay on SK-OV-3 it was 15.8 µM (inactive); in the assay with SF-295 it was 13 µM (inactive); in the assay with HL-60 it was 10.8 µM (inactive). For the same compound, the GI50 is 3.26 µM (inactive) with T47D; 13.9 µM (inactive) in the assay with SF-268; 3.48 µM (inactive) in the assay on MCF7; 4.7 µM (inactive) in the assay on ACHN; 11 µM in the assay on HCT-15; 17.3 µM (inactive) with SK-MEL-28. Besides, the GI50 was 12 µM (inactive) with CAKI-1, 12.9 µM (inactive) with RXF 393, 5.3 µM (inactive) in the assay with IGROV-1 and 4.65 µM (inactive) in the assay with DU-145.

Take `COc1cc2c(oc(=O)c3c4oc([Si](C)(C)C)cc4cc(OC)c23)c2cccc(OCc3ccccc3)c12`: the GI50 in the assay with A498 was 31.4 µM (inactive); with OVCAR-8 it was 38.5 µM (inactive); with COLO 205 it was 54.2 µM (inactive); with UACC-62, 17.4 µM (inactive); in the assay with SK-OV-3 it was 38.3 µM (inactive); in the assay with SF-295, 19 µM (inactive). Further, the GI50 in the assay with HL-60 is 43.3 µM (inactive); in the assay with SF-268 it was 26.5 µM (inactive); with ACHN it was 51.4 µM (inactive); in the assay with HCT-15, > 70.5 µM; in the assay on SK-MEL-28 it was 38.3 µM (inactive); in the assay on CAKI-1, 21.4 µM (inactive). Moreover, the GI50 in the assay with RXF 393 was > 33.5 µM (inactive); in the assay on IGROV-1 it was 50.5 µM (inactive); with OVCAR-4, 33.1 µM (inactive); with SK-MEL-2 it was 33.7 µM (inactive).

Regarding `N#Cc1nc(-c2ccccn2)oc1N`, the GI50 in the assay with A498, in the assay with COLO 205, with UACC-62, in the assay with SK-OV-3, with SF-295 and in the assay on HL-60 was > 100 µM (inactive) each time. For the same compound, the GI50 was > 100 µM (inactive) in the assay with SF-268; > 100 µM (inactive) in the assay with MCF7; > 100 µM (inactive) with ACHN; > 100 µM in the assay with HCT-15; > 100 µM (inactive) in the assay with Hs-578T; > 100 µM (inactive) in the assay with SK-MEL-28. Besides, the GI50 in the assay on CAKI-1, in the assay on RXF 393, with IGROV-1, in the assay on OVCAR-4, in the assay on DU-145 and in the assay with SK-MEL-2 was > 100 µM (inactive) each time.

As to `CCOC(=O)C(C)(C)/C=C\C(Cl)=C(Cl)Cl`, the GI50 with OVCAR-8, in the assay on COLO 205, in the assay with UACC-62, in the assay on SK-OV-3, in the assay with SF-295 and with HL-60 was > 100 µM (inactive) throughout. In addition, the GI50 with SF-268, with ACHN, with Hs-578T, in the assay with SK-MEL-28, with CAKI-1 and with RXF 393 was > 100 µM (inactive) each time. Also, the GI50 in the assay on IGROV-1 and with DU-145 was > 100 µM (inactive) throughout.

As to `CCOC(=O)[C@]12C(=C(c3ccccc3)O[C@H]3C=CCC[C@H]31)C(=O)C(=O)N2c1ccccc1`, the GI50 was > 100 µM (inactive) in the assay on A498; 65.2 µM (inactive) with OVCAR-8; > 100 µM (inactive) in the assay with COLO 205; > 100 µM (inactive) in the assay on UACC-62; > 100 µM (inactive) with SK-OV-3; 98.4 µM (inactive) with SF-295. Moreover, the GI50 in the assay with T47D was > 100 µM (inactive); in the assay with SF-268 it was > 100 µM (inactive); in the assay with MCF7, > 100 µM (inactive); in the assay with ACHN, > 100 µM (inactive); in the assay with HCT-15 it was > 100 µM; in the assay on CAKI-1, > 100 µM (inactive). Further, the GI50 in the assay on RXF 393, with OVCAR-4, with DU-145 and with SK-MEL-2 was > 100 µM (inactive) in each case.

As to `O=C1/C(=N\O)C2CCC1C2` (stereo not drawn), the GI50 in the assay on A498, with OVCAR-8, in the assay on COLO 205, in the assay with UACC-62, in the assay with SK-OV-3 and with SF-295 was > 100 µM (inactive) each time. For the same compound, the GI50 was > 100 µM (inactive) in the assay with HL-60; > 100 µM (inactive) in the assay on SF-268; > 100 µM (inactive) in the assay with ACHN; > 100 µM in the assay with HCT-15; > 100 µM (inactive) in the assay with SK-MEL-28; > 100 µM (inactive) in the assay on CAKI-1. The GI50 in the assay with RXF 393, with IGROV-1, in the assay with OVCAR-4 and with SK-MEL-2 was > 100 µM (inactive) each time.

Take `NC1CC2NC3CCCCC3NC2CC1N` (stereo not drawn): the GI50 is 26.8 µM (inactive) in the assay with A498; 27.4 µM (inactive) in the assay with OVCAR-8; 42.5 µM (inactive) in the assay on COLO 205; 33.6 µM (inactive) in the assay with UACC-62; 28.4 µM (inactive) with SK-OV-3; 31.8 µM (inactive) with SF-295. The GI50 with HL-60 was 26.7 µM (inactive); in the assay with SF-268, 50.8 µM (inactive); in the assay with MCF7, 0.776 µM (active); in the assay on ACHN it was 24.9 µM (inactive); in the assay on HCT-15, 21.7 µM; in the assay on Hs-578T, 27.9 µM (inactive). Moreover, the GI50 in the assay on SK-MEL-28 is 74.5 µM (inactive); with CAKI-1, 35 µM (inactive); in the assay with RXF 393 it was 23.7 µM (inactive); in the assay on IGROV-1, 55.2 µM (inactive); in the assay with DU-145, 50.2 µM (inactive); in the assay with SK-MEL-2 it was 50.1 µM (inactive).

As to `CN[C@@H]1C[C@H]2O[C@@](C)([C@@H]1OC)n1c3ccccc3c3c4c(c5c6ccccc6n2c5c31)C(=O)N[C@@H]4O`, the GI50 with A498 is < 0.0129 µM (active); in the assay with OVCAR-8, 0.0668 µM (active); in the assay on COLO 205, 0.0569 µM (active); in the assay with UACC-62, 0.0282 µM (active); in the assay on SK-OV-3, 0.0267 µM (active); in the assay on SF-295, 0.0241 µM (active). Besides, the GI50 was 0.0877 µM (active) with HL-60; 0.0408 µM (active) in the assay on SF-268; 0.0212 µM (active) with MCF7; 0.209 µM with HCT-15; 0.00454 µM (active) in the assay on Hs-578T; 0.0551 µM (active) with SK-MEL-28. Also, the GI50 was < 0.0116 µM (active) in the assay with RXF 393, 0.0526 µM (active) in the assay with OVCAR-4, 0.0254 µM (active) in the assay with DU-145 and 0.0145 µM (active) in the assay with SK-MEL-2.

`Cc1cc(Cl)ccc1NC(=O)C(=O)Cc1nc2ccccc2o1`: the GI50 in the assay with A498, with OVCAR-8, in the assay with COLO 205, with UACC-62, with SK-OV-3 and in the assay with SF-295 was > 100 µM (inactive) in each case. Further, the GI50 in the assay with HL-60 is > 100 µM (inactive); in the assay on SF-268 it was > 100 µM (inactive); in the assay with ACHN, > 100 µM (inactive); in the assay with HCT-15, > 100 µM; with SK-MEL-28, > 100 µM (inactive); in the assay with CAKI-1, > 100 µM (inactive). For the same compound, the GI50 in the assay on RXF 393, in the assay with IGROV-1, in the assay with OVCAR-4 and with SK-MEL-2 was > 100 µM (inactive) throughout.

For the compound `Nc1nc(S)nc(C(=O)Nc2nccs2)c1-c1ccccc1`, the GI50 in the assay with A498, in the assay with OVCAR-8, in the assay on COLO 205, in the assay on UACC-62, with SK-OV-3 and with SF-295 was > 100 µM (inactive) throughout. In addition, the GI50 in the assay with HL-60 was > 100 µM (inactive); with SF-268, > 100 µM (inactive); in the assay on ACHN it was > 100 µM (inactive); in the assay with HCT-15, > 100 µM; with SK-MEL-28, > 100 µM (inactive); in the assay with CAKI-1, > 100 µM (inactive). Besides, the GI50 in the assay on RXF 393, with IGROV-1, in the assay with OVCAR-4 and in the assay with SK-MEL-2 was > 100 µM (inactive) each time.

Turning to `CN1CN(c2ccccc2)C2(CCN(CC(C)(c3ccc(F)cc3)C3OCCCO3)CC2)C1=O` (stereo not drawn), the GI50 in the assay on OVCAR-8 is 19.4 µM (inactive); with COLO 205 it was 17.7 µM (inactive); with UACC-62 it was 17.9 µM (inactive); in the assay on SK-OV-3, 26.4 µM (inactive); in the assay with SF-295, 18.4 µM (inactive); in the assay on HL-60, 14.7 µM (inactive). Moreover, the GI50 in the assay with T47D is 17.7 µM (inactive); in the assay with SF-268 it was 17.8 µM (inactive); in the assay with MCF7, 13 µM (inactive); in the assay with ACHN, 17.7 µM (inactive); in the assay with HCT-15, 15.3 µM; with SK-MEL-28, 16.8 µM (inactive). For the same compound, the GI50 with CAKI-1 was 19.7 µM (inactive); in the assay on RXF 393, 19.7 µM (inactive); with IGROV-1, 18.5 µM (inactive); in the assay with DU-145, 27.6 µM (inactive).

For the origin of these results see ChEMBL document CHEMBL1201862, “PubChem BioAssay data set” (2004).
